Patent US12338446B2, “Plants having increased tolerance to herbicides” (priority 2015, dated 2025)
Like-named read-outs stand apart in the source and are kept apart here.

Key:
[1] = tested on: Nicotiana benthamiana leaf discs; assay: PSII yield inhibition (chlorophyll fluorescence, imaging PAM) in transiently transformed tobacco leaf discs; format: cell-based; details: read-out: IC50 of PSII yield inhibition
Description: Transient expression of PPO sequences (e.g. SEQ ID NO: 184) as wildtype or with respective mutations were done as described previously (Voinnet O., et al., 2003, The Plant Journal 33, 949-956). In brief, cloning of GOI and Agrobacterium transformation (strain: GV2260) were done as described in EXAMPLE 5. Young leaves of
Nicotiana benthamiana were infiltrated with transgenic Agrobacterium suspension (OD^600 of 1.0) harboring binary vector constructs containing a GO/gene controlled by a promoter and terminator sequence. 48 h to 72 h after infiltration punches of leave discs (0.75 cm in diameter) were transferred to 6-well plates with medium (half strength Linsmaier-Skoog (Linsmaier and Skoog (1965) Physiol. Plant. 18: 100-127) nutrient solution or water) containing herbicide of interest in different concentrations. […]
Leaf discs, generated as described in EXAMPLE 14, expressing a protein encoded by GOI, were subjected to analysis on improved tolerance to herbicide treatment. For analysis of herbicide damage, chlorophyll fluorescence were identified as indicative marker (Dayan and Zaccaro (2012) Pest. Biochem. Physiol. 102: 189-197). […] PSII yield were measured as per manufacturer instructions. Tolerance factors were calculated based on IC50 values of PSII yield inhibition of transformed versus empty vector-transformed leaf discs. […]

[2] = tested on: Transgenic Arabidopsis thaliana plants with wildtype or mutated PPO sequences; assay: Tolerance of transgenic Arabidopsis thaliana plants to PPO-inhibiting herbicides in 48-well plates (growth inhibition); format: in vivo; details: seven to ten days after seeding
Method: Transformed cells are selected in selection media supplemented with 0.5-1.5 μM imazethapyr for 3-4 weeks. Transgenic plantlets are regenerated on plant regeneration media and rooted afterwards. Transgenic plantlets are subjected to TaqMan analysis for the presence of the transgene before being transplanted to potting mixture and grown to maturity in greenhouse. Arabidopsis thaliana are transformed with wildtype or mutated PPO sequences by floral dip method as described by McElver and Singh (WO 2008/124495). Transgenic Arabidopsis plants are subjected to TaqMan analysis for analysis of the number of integration loci. Transformation of Otyza sativa (rice) are done by protoplast transformation as described by Peng et al. (U.S. Pat. No. 6,653,529) TO or T1 transgenic plant of soybean, corn, and rice containing mutated PPO sequences are tested for improved tolerance to PPO-derived herbicides in greenhouse studies and mini-plot studies with the following PPO-inhibiting herbicides: saflufenacil, 1,5-dimethyl-6-thioxo-3-(2,2,7-trifluoro-3-oxo-4-(prop-2-ynyl)-3,4-dihydro-2H-benzo[b][1,4]oxazin-6-yl)-1,3,5-triazinane-2,4-dione (CAS 1258836-72-4), flumioxazin, butafenacil, acifluorfen, lactofen, bifenox, sulfentrazone, and photosynthesis inhibitor diuron as negative control.
Transgenic Arabidopsis thaliana plants are assayed for improved tolerance to saflufenacil, 1,5-dimethyl-6-thioxo-3-(2,2,7-trifluoro-3-oxo-4-(prop-2-ynyl)-3,4-dihydro-2H-benzo[b][1,4]oxazin-6-yl)-1,3,5-triazinane-2,4-dione (CAS 1258836-72-4), flumioxazin, butafenacil, acifluorfen, lactofen, bifenox, sulfentrazone, and photosynthesis inhibitor diuron as negative control in 48-well plates. Therefore, T2 seeds are surface sterilized by stirring for 5 min in ethanol+water (70+30 by volume), rinsing one time with ethanol+water (70+30 by volume) and two times with sterile, deionized water. The seeds are resuspended in 0.1% agar dissolved in water (w/v) Four to five seeds per well are plated on solid nutrient medium consisting of half-strength murashige skoog nutrient solution, pH 5.8 (Murashige and Skoog (1962) Physiologia Plantarum 15: 473-497). Compounds are dissolved in dimethylsulfoxid (DMSO) and added to the medium prior solidification (final DMSO concentration 0.1%). Multi well plates are incubated in a growth chamber at 22° C., 75% relative humidity and 110 μmol Phot*m^−2*s^−1 with 14:10 h light: dark photoperiod. Growth inhibition is evaluated seven to ten days after seeding in comparison to wild type plants.

[3] = gene CHLSP_PPO_wt_tpFNR, Chloroflexus sp. (SEQ ID NO: 21)
[4] = gene OPITE_PPO_wt_tpFNR, Opitutus marinus (SEQ ID NO: 9)
[5] = gene RHOMA_PPO_F353V_tpFNR, Rhodotermus marinus (SEQ ID NO: 3 oder 5)
[6] = gene RHOMA_PPO_wt_tpFNR, Rhodotermus marinus (SEQ ID NO: 3 oder 5)
[7] = gene hemG_tpFNR, Escherichia coli (SEQ ID NO: 184)

`CC(C)N(C)S(=O)(=O)NC(=O)c1cc(-n2c(=O)cc(C(F)(F)F)n(C)c2=O)c(F)cc1Cl` [Saflufenacil, saflufenacil] was tested, and the IC50 ([1]; 48 h) was 110 nM, the “improved tolerance (growth inhibition in comparison to wild type plants)” value ([2]; gene AC IB A_hemJ_wt_tpFNR, Acinetobacter baylyi (SEQ ID NO: 312)) was 1 and the “improved tolerance (growth inhibition in comparison to wild type plants)” value ([2]; gene CALNI_PPO_wt_tpFNR, Calditerrivibrio nitroreducens (SEQ ID NO: 48)) was 1. The “improved tolerance (growth inhibition in comparison to wild type plants)” value ([2]; gene CANME_PPO_wt_tpFNR, Candidatus methylomirabilis (SEQ ID NO: 54 or 57)) was 1, the “improved tolerance (growth inhibition in comparison to wild type plants)” value [2, 3] was 640 and the “improved tolerance (growth inhibition in comparison to wild type plants)” value ([2]; gene HYDTH_PPO_wt_tpFNR, Hydrogenobacter thermophilus (SEQ ID NO: 27)) was 10. For the same compound, the “improved tolerance (growth inhibition in comparison to wild type plants)” value ([2]; gene LARHO_PPO_wt_tpFNR, Laribacter hongkongensis (SEQ ID NO: 34)) was 1, the “improved tolerance (growth inhibition in comparison to wild type plants)” value [2, 4] was 14 and the “improved tolerance (growth inhibition in comparison to wild type plants)” value [2, 5] was 1. The “improved tolerance (growth inhibition in comparison to wild type plants)” value [2, 6] was 1 and the “improved tolerance (growth inhibition in comparison to wild type plants)” value [2, 7] was 332.
In the case of `C#CCN1C(=O)C(F)(F)Oc2cc(F)c(-n3c(=O)n(C)c(=S)n(C)c3=O)cc21` [BAS 850H, 1,5-dimethyl-6-thioxo-3-(2,2,7-trifluoro-3-oxo-4-(prop-2-ynyl)-3,4-dihydro-2H-benzo[b][1,4]oxazin-6-yl)-1,3,5-triazinane-2,4-dione], the IC50 ([1]; empty vector-transformed leaf discs, treated for 48 h) is reported as 11 nM, the “improved tolerance (growth inhibition in comparison to wild type plants)” value [2, 3] is reported as 1500 and the “improved tolerance (growth inhibition in comparison to wild type plants)” value [2, 4] is reported as 9. The “improved tolerance (growth inhibition in comparison to wild type plants)” value [2, 5] was 1, the “improved tolerance (growth inhibition in comparison to wild type plants)” value [2, 6] was 1 and the “improved tolerance (growth inhibition in comparison to wild type plants)” value [2, 7] was 4433.
